Experimental data published in the supplement of paper PMC10307832.

Experiments:
Experiment in all cases: relative viability (nuclei count vs DMSO), 5 days (fraction); higher = more cells survive
Doxorubicin + Decitabine = compound: COc1cccc2c1C(=O)c1c(O)c3c(c(O)c1C2=O)C[C@@](O)(C(=O)CO)C[C@@H]3O[C@H]1C[C@H](N)[C@H](O)[C@H](C)O1 [Doxorubicin] + Nc1ncn([C@H]2C[C@H](O)[C@@H](CO)O2)c(=O)n1 [Decitabine] (partner 2 µM)
Procedure, shortened: (§1)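 A single step with final 0.05% Triton X-100, 1% formaldehyde and 1 ug/ml Hoechst fixed the cells and stained nuclei 5 days after treatment. Lung cancer cell lines in 1536-well plates had been treated by pin tool the day after seeding with one drug alone or a fixed anchor-drug dose plus five library-drug doses (not always all listed) in √10 steps, and nuclei were counted on 4× images. Relative viability is the ratio of nuclei in treated wells to nuclei in vehicle wells, taken as the median of duplicate plates.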

BAY61-3606 + Crizotinib = compound: COC1=C(C=C(C=C1)C2=CC3=NC=CN3C(=N2)NC4=C(C=CC=N4)C(=O)N)OC [BAY61-3606] + C[C@@H](Oc1cc(-c2cnn(C3CCNCC3)c2)cnc1N)c1c(Cl)ccc(F)c1Cl [Crizotinib] (partner 1 µM)
Procedure, shortened: as §1

Doxorubicin + Trametinib = compound: COc1cccc2c1C(=O)c1c(O)c3c(c(O)c1C2=O)C[C@@](O)(C(=O)CO)C[C@@H]3O[C@H]1C[C@H](N)[C@H](O)[C@H](C)O1 [Doxorubicin] + CC(=O)Nc1cccc(-n2c(=O)n(C3CC3)c(=O)c3c(Nc4ccc(I)cc4F)n(C)c(=O)c(C)c32)c1 [Trametinib] (partner 0.02 µM)
Procedure, shortened: as §1

Doxorubicin + Tozasertib = compound: COc1cccc2c1C(=O)c1c(O)c3c(c(O)c1C2=O)C[C@@](O)(C(=O)CO)C[C@@H]3O[C@H]1C[C@H](N)[C@H](O)[C@H](C)O1 [Doxorubicin] + Cc1cc(Nc2cc(N3CCN(C)CC3)nc(Sc3ccc(NC(=O)C4CC4)cc3)n2)n[nH]1 [Tozasertib] (partner 0.1 µM)
Procedure, shortened: as §1

## UMC-11
Doxorubicin + Decitabine; first compound 0.001 µM
  relative viability: 0.641
Doxorubicin + Decitabine; first compound 0.003162 µM
  relative viability: 0.497
Doxorubicin + Decitabine; first compound 0.01 µM
  relative viability: 0.619
Doxorubicin + Decitabine; first compound 0.03162 µM
  relative viability: 0.385
Doxorubicin + Decitabine; first compound 0.1 µM
  relative viability: 0.41
BAY61-3606 + Crizotinib; first compound 0.02 µM
  relative viability: 0.664
BAY61-3606 + Crizotinib; first compound 0.06325 µM
  relative viability: 0.613
BAY61-3606 + Crizotinib; first compound 0.2 µM
  relative viability: 0.503
BAY61-3606 + Crizotinib; first compound 0.6325 µM
  relative viability: 0.762
BAY61-3606 + Crizotinib; first compound 2 µM
  relative viability: 0.509
Doxorubicin + Trametinib; first compound 0.001 µM
  relative viability: 0.948
Doxorubicin + Trametinib; first compound 0.003162 µM
  relative viability: 0.761
Doxorubicin + Trametinib; first compound 0.01 µM
  relative viability: 0.768
Doxorubicin + Trametinib; first compound 0.03162 µM
  relative viability: 0.366
Doxorubicin + Trametinib; first compound 0.1 µM
  relative viability: 0.442
Doxorubicin + Tozasertib; first compound 0.001 µM
  relative viability: 0.22
Doxorubicin + Tozasertib; first compound 0.003162 µM
  relative viability: 0.215
Doxorubicin + Tozasertib; first compound 0.01 µM
  relative viability: 0.209
Doxorubicin + Tozasertib; first compound 0.03162 µM
  relative viability: 0.21
Doxorubicin + Tozasertib; first compound 0.1 µM
  relative viability: 0.208
